Results reported in ChEMBL document CHEMBL1147682, “New 4-(4-methyl-phenyl)phthalazin-1(2H)-one derivatives and their effects on alpha1-receptors” (Bioorg Med Chem Lett, 2006).

What was measured:
Type in all cases: tissue-based
[1] = target: T1, Adrenergic receptor alpha-2 (Rattus norvegicus, UniProt P22086+P19328+P22909); test: Displacement of [3H]rauwolscine from alpha-2 adrenergic receptor in rat cerebral cortex
T1 sequence (P22086 whole entry): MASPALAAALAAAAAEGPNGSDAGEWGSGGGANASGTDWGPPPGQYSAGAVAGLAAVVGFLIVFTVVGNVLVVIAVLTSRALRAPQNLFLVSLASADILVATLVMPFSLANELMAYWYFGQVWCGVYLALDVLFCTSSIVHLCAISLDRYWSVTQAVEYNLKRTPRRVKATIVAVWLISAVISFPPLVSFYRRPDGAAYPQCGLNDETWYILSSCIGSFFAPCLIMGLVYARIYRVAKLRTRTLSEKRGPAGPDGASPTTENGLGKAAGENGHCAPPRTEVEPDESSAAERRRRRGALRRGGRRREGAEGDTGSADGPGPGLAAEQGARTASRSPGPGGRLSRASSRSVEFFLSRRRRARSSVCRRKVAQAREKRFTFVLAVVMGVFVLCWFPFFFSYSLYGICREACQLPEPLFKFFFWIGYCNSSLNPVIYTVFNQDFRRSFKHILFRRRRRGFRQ
T1 sequence (P19328 whole entry): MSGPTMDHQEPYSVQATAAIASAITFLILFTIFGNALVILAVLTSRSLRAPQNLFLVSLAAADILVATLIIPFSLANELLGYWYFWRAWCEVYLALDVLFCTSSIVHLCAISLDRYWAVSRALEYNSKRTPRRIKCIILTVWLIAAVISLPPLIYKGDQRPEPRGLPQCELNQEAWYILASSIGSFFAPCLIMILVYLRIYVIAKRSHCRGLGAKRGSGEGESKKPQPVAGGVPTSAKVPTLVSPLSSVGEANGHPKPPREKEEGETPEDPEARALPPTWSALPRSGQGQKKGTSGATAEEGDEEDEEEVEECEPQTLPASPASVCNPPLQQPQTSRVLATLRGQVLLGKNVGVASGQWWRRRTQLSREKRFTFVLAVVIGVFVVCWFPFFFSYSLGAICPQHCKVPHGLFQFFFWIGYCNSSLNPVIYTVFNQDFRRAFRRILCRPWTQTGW
T1 sequence (P22909 whole entry): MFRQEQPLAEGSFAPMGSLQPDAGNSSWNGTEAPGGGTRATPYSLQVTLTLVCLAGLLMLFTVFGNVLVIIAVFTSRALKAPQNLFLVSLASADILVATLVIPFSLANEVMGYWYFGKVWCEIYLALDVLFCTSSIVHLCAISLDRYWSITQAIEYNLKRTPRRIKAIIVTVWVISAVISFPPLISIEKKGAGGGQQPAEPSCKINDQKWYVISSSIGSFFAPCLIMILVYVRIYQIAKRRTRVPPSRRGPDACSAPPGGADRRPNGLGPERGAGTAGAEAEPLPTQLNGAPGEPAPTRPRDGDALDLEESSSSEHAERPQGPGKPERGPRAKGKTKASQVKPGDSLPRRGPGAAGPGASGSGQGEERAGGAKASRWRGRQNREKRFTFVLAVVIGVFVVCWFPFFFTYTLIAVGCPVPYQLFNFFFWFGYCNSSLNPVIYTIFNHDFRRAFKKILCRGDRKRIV

[2] = target: T2, 5-hydroxytryptamine receptor 1A (Rattus norvegicus, UniProt P19327); test: Displacement of [3H]8-OH-DPAT from 5HT1A serotonergic receptor in rat cerebral cortex
T2 sequence (P19327 whole entry): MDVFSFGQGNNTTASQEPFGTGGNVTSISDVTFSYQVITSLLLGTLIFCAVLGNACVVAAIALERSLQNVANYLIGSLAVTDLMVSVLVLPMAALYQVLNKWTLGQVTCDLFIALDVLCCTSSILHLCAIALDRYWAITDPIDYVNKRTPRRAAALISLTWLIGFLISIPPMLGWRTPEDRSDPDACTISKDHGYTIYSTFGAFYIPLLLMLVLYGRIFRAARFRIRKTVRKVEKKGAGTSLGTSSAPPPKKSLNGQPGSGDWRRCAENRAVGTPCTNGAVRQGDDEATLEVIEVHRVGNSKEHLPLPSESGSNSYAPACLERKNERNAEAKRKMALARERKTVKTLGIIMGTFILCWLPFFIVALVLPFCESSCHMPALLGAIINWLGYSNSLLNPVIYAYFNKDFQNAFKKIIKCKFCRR

[3] = target: T3, Serotonin 1a (5-HT1a) receptor/Adrenergic receptor alpha-1 (Rattus norvegicus) (UniProt P15823+P23944+P43140+P19327); test: Selectivity for 5HT1A serotonergic receptor over alpha1 adrenergic receptor in rat cerebral cortex
[4] = target: T4, Adrenergic receptor alpha-1 (Rattus norvegicus, UniProt P15823+P23944+P43140); test: Displacement of [3H]prazosin from alpha-1 adrenergic receptor in rat cerebral cortex
T4 sequence (P15823 whole entry): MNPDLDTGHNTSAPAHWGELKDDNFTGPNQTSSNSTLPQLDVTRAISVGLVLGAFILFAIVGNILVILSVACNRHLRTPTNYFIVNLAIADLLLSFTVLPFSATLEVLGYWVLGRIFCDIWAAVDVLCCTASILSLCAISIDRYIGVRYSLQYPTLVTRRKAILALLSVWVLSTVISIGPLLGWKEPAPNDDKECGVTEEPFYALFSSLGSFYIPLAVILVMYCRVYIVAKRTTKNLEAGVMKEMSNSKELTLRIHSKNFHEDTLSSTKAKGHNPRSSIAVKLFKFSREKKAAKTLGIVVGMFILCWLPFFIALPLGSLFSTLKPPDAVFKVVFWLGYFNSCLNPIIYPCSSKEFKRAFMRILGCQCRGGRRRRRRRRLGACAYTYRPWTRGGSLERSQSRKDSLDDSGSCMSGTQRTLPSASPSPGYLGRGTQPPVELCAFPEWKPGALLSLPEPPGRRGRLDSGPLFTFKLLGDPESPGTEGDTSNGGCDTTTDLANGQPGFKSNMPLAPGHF
T4 sequence (P23944 whole entry): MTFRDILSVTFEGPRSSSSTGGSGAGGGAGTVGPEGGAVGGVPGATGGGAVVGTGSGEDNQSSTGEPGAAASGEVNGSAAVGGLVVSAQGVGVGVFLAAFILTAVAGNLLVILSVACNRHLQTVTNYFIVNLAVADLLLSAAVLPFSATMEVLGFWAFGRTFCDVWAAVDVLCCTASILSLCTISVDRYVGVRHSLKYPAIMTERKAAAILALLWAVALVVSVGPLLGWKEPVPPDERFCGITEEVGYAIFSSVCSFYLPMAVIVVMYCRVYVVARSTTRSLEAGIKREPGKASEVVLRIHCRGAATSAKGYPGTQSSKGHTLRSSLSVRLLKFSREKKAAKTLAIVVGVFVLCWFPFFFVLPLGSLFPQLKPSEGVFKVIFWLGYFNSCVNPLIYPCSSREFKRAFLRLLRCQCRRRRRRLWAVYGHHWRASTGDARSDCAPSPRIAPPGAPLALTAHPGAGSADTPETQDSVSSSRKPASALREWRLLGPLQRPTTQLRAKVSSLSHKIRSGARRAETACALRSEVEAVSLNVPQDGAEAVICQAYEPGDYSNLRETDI
T4 sequence (P43140 whole entry): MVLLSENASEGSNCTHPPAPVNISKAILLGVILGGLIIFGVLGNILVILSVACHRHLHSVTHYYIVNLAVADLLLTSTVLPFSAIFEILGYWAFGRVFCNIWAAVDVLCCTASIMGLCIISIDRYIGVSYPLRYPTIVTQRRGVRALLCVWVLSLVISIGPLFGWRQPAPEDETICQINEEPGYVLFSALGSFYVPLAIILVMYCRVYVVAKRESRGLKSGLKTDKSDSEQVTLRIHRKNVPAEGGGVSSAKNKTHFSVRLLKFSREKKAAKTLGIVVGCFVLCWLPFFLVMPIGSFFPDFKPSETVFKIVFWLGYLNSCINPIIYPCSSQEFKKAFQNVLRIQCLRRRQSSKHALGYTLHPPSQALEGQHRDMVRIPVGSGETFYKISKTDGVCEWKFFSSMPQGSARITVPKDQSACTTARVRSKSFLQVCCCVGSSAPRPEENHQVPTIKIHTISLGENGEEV

[5] = target: T5, 5-hydroxytryptamine receptor 1A (Rattus norvegicus) (UniProt P19327); test: Displacement of [3H]8-OH-DPAT from 5HT1A serotonergic receptor in rat cerebral cortex at 10 uM
T5 sequence (whole entry): T2 sequence (P19327 whole entry)

[6] = target: Adrenergic receptor alpha-1 (Rattus norvegicus) (UniProt P15823+P23944+P43140); test: Displacement of [3H]prazosin from alpha-1 adrenergic receptor in rat cerebral cortex at 10 uM
[7] = target: Adrenergic receptor alpha-2 (Rattus norvegicus) (UniProt P22086+P19328+P22909); test: Displacement of [3H]rauwolscine from alpha-2 adrenergic receptor in rat cerebral cortex at 10 uM
[8] = target: T3, Serotonin 1a (5-HT1a) receptor/Adrenergic receptor alpha-1 (Rattus norvegicus); test: Selectivity for alpha-1 adrenergic receptor over 5HT1A serotonergic receptor in rat cerebral cortex

| Compound | Ki [1] | Ki [2] | Ratio Ki [3] | Ki [4] | inhibition [5] | inhibition [6] | inhibition [7] | Ratio Ki [8] |
| --- | --- | --- | --- | --- | --- | --- | --- | --- |
| Cc1ccc(-c2nn(CCCCCCCn3ncc4ccccc4c3=O)c(=O)c3ccccc23)cc1 | – | – | – | – | 10% | 26% | 15% | – |
| Cc1ccc(-c2nn(CCCCCCCN3CCN(c4cccc(Cl)c4)CC3)c(=O)c3ccccc23)cc1 | 430 nM | 673 nM | – | 37 nM | – | – | – | 18.2 |
| Cc1ccc(-c2nn(CCCCN3CCN(c4ncccn4)CC3)c(=O)c3ccccc23)cc1 | 2034 nM | 1180 nM | – | 270 nM | – | – | – | 4.4 |
| CCOc1ccccc1N1CCN(CCn2nc(-c3ccc(C)cc3)c3ccccc3c2=O)CC1 | 867 nM | 951 nM | – | 3.9 nM | – | – | – | 244 |
| Cc1ccc(-c2nn(CCCCN3CCN(CC4COc5ccccc5O4)CC3)c(=O)c3ccccc23)cc1 (configuration not stated) | 278 nM | 1930 nM | – | 180 nM | – | – | – | 10.7 |
| Cc1ccc(-c2nn(CCN3CCN(c4ccccc4OC(C)C)CC3)c(=O)c3ccccc23)cc1 | 1301 nM | 1290 nM | – | 5 nM | – | – | – | 258 |
| Cc1ccc(-c2nn(CCCCCCCN3CCN(c4cccc(C(F)(F)F)c4)CC3)c(=O)c3ccccc23)cc1 | 4180 nM | 722 nM | – | 382 nM | – | – | – | 1.9 |
| COc1ccccc1N1CCN(CCn2nc(-c3ccc(C)cc3)c3ccccc3c2=O)CC1 | 578 nM | 473 nM | – | 3.5 nM | – | – | – | 135 |
| Cc1ccc(-c2nn(CCN3CCN(c4ccccc4)CC3)c(=O)c3ccccc23)cc1 | 4262 nM | 6200 nM | – | 25.3 nM | – | – | – | 245 |

The remaining lines, values ahead:

| Ki [1] | Ki [2] | Ratio Ki [3] | Ki [4] | inhibition [5] | inhibition [6] | inhibition [7] | Ratio Ki [8] | Compound |
| --- | --- | --- | --- | --- | --- | --- | --- | --- |
| 186.5 nM | 71.8 nM | 1.5 | 111.6 nM | – | – | – | – | Cc1ccc(-c2nn(CCCCN3CCN(c4cccc(C(F)(F)F)c4)CC3)c(=O)c3ccccc23)cc1 |
| 105 nM | 101 nM | – | 8.4 nM | – | – | – | 12 | COc1ccccc1N1CCN(CCCCCCCn2nc(-c3ccc(C)cc3)c3ccccc3c2=O)CC1 |
| 178.2 nM | 116 nM | – | 12.4 nM | – | – | – | 9.3 | Cc1ccc(-c2nn(CCCCN3CCN(c4cccc(Cl)c4)CC3)c(=O)c3ccccc23)cc1 |
| 96 nM | 81 nM | – | 1.07 nM | – | – | – | 75.7 | Cc1ccc(-c2nn(CCCCN3CCN(c4ccccc4OC(C)C)CC3)c(=O)c3ccccc23)cc1 |
| 186 nM | 450 nM | – | 23.9 nM | – | – | – | 18.8 | Cc1ccc(-c2nn(CCCCN3CCN(c4ccccc4)CC3)c(=O)c3ccccc23)cc1 |
| 60.47 nM | 41 nM | – | 2.23 nM | – | – | – | 18.3 | CCOc1ccccc1N1CCN(CCCCn2nc(-c3ccc(C)cc3)c3ccccc3c2=O)CC1 |
| 60.37 nM | 38.5 nM | – | 2.6 nM | – | – | – | 14.8 | COc1ccccc1N1CCN(CCCCn2nc(-c3ccc(C)cc3)c3ccccc3c2=O)CC1 |
| 889 nM | 207 nM | – | 7.33 nM | – | – | – | 28.2 | CCOc1ccccc1N1CCN(CCCCCCCn2nc(-c3ccc(C)cc3)c3ccccc3c2=O)CC1 |
